Data as given in ChEMBL document CHEMBL1150317, “Discovery of aryl aminoquinazoline pyridones as potent, selective, and orally efficacious inhibitors of receptor tyrosine kinase c-Kit” (J Med Chem, 2008).
pEC50, pIC50: −log10 of the molar value.

Experiments:
[1] = target: Mitogen-activated protein kinase 9 (Homo sapiens) (UniProt P45984); assay: Inhibition of JNK2 at 1 uM relative to control
[2] = target: Tyrosine-protein kinase ABL1 (Homo sapiens, UniProt P00519); assay: Inhibition of Abl by TR-FRET assay
[3] = target: Protein kinase C beta type (Homo sapiens) (UniProt P05771); assay: Inhibition of PKCbeta at 1 uM relative to control
[4] = target: Rho-associated protein kinase 2 (Homo sapiens) (UniProt O75116); assay: Inhibition of ROCK2 at 1 uM relative to control
[5] = target: Glycogen synthase kinase-3 beta (Homo sapiens) (UniProt P49841); assay: Inhibition of GSK3-beta at 1 uM relative to control
[6] = Inhibition of casein kinase 2 at 1 uM relative to control
[7] = target: Dual specificity mitogen-activated protein kinase kinase 4 (Homo sapiens) (UniProt P45985); assay: Inhibition of MKK4 at 1 uM relative to control
[8] = target: Tyrosine-protein kinase ZAP-70 (Homo sapiens) (UniProt P43403); assay: Inhibition of ZAP70 at 1 uM relative to control
[9] = target: 5'-AMP-activated protein kinase subunit beta-1 (Homo sapiens) (UniProt Q9Y478); assay: Inhibition of AMPK at 1 uM relative to control
5'-AMP-activated protein kinase subunit beta-1 (Homo sapiens), sequence (Q9Y478 whole entry): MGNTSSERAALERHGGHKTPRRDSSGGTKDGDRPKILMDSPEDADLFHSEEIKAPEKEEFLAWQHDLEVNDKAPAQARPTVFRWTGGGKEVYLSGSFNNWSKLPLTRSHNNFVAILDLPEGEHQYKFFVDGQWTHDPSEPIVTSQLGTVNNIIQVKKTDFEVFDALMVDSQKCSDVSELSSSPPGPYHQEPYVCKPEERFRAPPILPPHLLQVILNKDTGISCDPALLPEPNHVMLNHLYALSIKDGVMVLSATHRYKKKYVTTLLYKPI

[10] = Clearance in Sprague-Dawley rat at 1 mg/kg, iv; assay type: ADME, organism-based; design: dose 1 mg/kg, route intravenous; details: in vivo
[11] = AUC (0 to t) in Sprague-Dawley rat at 10 mg/kg, po; assay type: ADME, organism-based; design: dose 10 mg/kg, route oral; details: plasma
[12] = target: Ribosomal protein S6 kinase alpha-5 (Homo sapiens) (UniProt O75582); assay: Inhibition of MSK1 at 1 uM relative to control
[13] = target: RAC-alpha serine/threonine-protein kinase (Homo sapiens) (UniProt P31749); assay: Inhibition of PKBalpha at 1 uM relative to control
[14] = target: Mitogen-activated protein kinase 1 (Homo sapiens) (UniProt P28482); assay: Inhibition of MAPK1 at 1 uM relative to control
Mitogen-activated protein kinase 1 (Homo sapiens), sequence (P28482 whole entry): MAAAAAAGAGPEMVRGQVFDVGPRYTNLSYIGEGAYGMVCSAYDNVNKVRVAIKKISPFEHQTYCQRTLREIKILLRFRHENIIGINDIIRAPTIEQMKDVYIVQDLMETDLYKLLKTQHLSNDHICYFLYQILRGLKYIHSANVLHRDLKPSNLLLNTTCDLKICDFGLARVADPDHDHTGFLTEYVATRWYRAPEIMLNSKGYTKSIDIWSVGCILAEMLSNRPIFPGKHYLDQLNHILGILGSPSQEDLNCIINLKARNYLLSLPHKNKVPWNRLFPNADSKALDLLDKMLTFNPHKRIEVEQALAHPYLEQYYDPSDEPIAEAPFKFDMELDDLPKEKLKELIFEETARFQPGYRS

[15] = Inhibition of casein kinase 1 at 1 uM relative to control
[16] = target: MAP kinase-activated protein kinase 5 (Homo sapiens) (UniProt Q8IW41); assay: Inhibition of PRAK at 1 uM relative to control
[17] = target: Mitogen-activated protein kinase 1 (Homo sapiens) (UniProt P28482); assay: Inhibition of MAPK2 at 1 uM relative to control
[18] = target: Mitogen-activated protein kinase 13 (Homo sapiens) (UniProt O15264); assay: Inhibition of p38delta at 1 uM relative to control
[19] = Oral bioavailability in Sprague-Dawley rat at 10 mg/kg; assay type: ADME, organism-based; details: in vivo
[20] = target: Cyclin-dependent kinase 2 (Homo sapiens) (UniProt P24941); assay: Inhibition of CDK2 at 1 uM relative to control
[21] = target: Dual specificity mitogen-activated protein kinase kinase 1 (Homo sapiens) (UniProt Q02750); assay: Inhibition of MEK1 at 1 uM relative to control
Plasma = assay: Protein binding in po dosed C57BL/6 mouse plasma by ultracentrifugation; assay type: ADME, organism-based; details: in vivo
[22] = target: Vascular endothelial growth factor receptor 2 (Homo sapiens, UniProt P35968)
Vascular endothelial growth factor receptor 2, sequence (P35968 whole entry): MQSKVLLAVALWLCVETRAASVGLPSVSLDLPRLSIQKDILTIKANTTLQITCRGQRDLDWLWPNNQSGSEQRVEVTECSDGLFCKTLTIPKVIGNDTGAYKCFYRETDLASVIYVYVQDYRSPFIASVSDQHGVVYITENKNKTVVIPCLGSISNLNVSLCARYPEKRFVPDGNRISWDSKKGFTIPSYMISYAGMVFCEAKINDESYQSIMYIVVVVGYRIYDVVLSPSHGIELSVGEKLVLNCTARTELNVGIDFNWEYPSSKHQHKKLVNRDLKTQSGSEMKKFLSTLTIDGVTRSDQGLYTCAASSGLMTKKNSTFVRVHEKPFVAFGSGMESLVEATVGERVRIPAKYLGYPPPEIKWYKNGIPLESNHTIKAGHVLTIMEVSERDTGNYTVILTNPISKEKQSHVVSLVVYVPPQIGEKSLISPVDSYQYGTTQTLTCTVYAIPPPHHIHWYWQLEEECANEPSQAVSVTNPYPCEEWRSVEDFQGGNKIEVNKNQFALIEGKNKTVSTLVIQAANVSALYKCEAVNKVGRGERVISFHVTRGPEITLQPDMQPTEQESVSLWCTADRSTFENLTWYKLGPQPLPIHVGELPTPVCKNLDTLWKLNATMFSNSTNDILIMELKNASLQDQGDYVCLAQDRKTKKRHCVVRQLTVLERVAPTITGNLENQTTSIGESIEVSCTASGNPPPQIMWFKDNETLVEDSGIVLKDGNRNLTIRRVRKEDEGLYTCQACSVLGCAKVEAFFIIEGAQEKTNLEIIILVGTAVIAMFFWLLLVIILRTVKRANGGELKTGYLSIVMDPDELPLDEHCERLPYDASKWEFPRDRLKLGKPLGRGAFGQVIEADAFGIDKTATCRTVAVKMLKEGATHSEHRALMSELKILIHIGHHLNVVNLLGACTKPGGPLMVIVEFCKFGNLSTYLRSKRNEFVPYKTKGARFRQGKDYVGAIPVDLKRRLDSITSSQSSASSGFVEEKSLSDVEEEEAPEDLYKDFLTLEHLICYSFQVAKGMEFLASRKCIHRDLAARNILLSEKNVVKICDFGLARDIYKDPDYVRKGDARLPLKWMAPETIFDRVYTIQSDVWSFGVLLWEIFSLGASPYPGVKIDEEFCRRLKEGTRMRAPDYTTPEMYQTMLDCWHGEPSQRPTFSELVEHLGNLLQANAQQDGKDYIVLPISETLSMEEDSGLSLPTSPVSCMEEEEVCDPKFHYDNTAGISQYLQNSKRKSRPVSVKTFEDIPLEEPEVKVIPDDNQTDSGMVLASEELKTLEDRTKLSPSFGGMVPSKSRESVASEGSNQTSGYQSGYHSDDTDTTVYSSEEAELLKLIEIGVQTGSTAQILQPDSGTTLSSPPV
Description: Inhibition of KDR by TR-FRET assay

[23] = target: Mitogen-activated protein kinase 14 (Homo sapiens) (UniProt Q16539); assay: Inhibition of p38alpha at 1 uM relative to control
[24] = target: Protein kinase C gamma type (Homo sapiens) (UniProt P05129); assay: Inhibition of PKCgamma at 1 uM relative to control
[25] = target: Platelet-derived growth factor receptor alpha (Homo sapiens, UniProt P16234)
Description: Inhibition of PDGFRalpha by TR-FRET assay

[26] = target: Mitogen-activated protein kinase 11 (Homo sapiens) (UniProt Q15759); assay: Inhibition of p38beta at 1 uM relative to control
[27] = target: Tyrosine-protein kinase Lck (Homo sapiens, UniProt P06239)
Tyrosine-protein kinase Lck, sequence (P06239 whole entry): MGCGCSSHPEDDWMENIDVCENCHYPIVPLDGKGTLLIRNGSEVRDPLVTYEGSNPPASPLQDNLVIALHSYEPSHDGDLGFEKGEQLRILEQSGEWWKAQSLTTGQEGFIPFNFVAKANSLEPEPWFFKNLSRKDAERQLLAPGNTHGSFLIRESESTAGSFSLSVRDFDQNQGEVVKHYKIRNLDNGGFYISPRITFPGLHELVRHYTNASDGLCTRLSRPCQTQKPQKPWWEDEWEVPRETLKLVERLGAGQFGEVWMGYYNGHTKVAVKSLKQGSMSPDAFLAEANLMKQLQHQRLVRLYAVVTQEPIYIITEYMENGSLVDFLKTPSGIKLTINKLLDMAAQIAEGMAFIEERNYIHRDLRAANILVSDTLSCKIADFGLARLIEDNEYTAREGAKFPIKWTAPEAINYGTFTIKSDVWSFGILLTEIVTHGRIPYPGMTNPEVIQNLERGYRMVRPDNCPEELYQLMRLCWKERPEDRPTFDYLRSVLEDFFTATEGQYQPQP
Description: Inhibition of Lck by TR-FRET assay

[28] = target: Mitogen-activated protein kinase 10 (Homo sapiens) (UniProt P53779); assay: Inhibition of JNK3 at 1 uM relative to control
[29] = target: Serine/threonine-protein kinase Chk2 (Homo sapiens) (UniProt O96017); assay: Inhibition of CHK2 at 1 uM relative to control
[30] = Inhibition of PKAalpha at 1 uM relative to control
[31] = Inhibition of CAMK2 at 1 uM relative to control
[32] = target: Serine/threonine-protein kinase N2 (Homo sapiens) (UniProt Q16513); assay: Inhibition of PRK2 at 1 uM relative to control
Serine/threonine-protein kinase N2 (Homo sapiens), sequence (Q16513 whole entry, looked up): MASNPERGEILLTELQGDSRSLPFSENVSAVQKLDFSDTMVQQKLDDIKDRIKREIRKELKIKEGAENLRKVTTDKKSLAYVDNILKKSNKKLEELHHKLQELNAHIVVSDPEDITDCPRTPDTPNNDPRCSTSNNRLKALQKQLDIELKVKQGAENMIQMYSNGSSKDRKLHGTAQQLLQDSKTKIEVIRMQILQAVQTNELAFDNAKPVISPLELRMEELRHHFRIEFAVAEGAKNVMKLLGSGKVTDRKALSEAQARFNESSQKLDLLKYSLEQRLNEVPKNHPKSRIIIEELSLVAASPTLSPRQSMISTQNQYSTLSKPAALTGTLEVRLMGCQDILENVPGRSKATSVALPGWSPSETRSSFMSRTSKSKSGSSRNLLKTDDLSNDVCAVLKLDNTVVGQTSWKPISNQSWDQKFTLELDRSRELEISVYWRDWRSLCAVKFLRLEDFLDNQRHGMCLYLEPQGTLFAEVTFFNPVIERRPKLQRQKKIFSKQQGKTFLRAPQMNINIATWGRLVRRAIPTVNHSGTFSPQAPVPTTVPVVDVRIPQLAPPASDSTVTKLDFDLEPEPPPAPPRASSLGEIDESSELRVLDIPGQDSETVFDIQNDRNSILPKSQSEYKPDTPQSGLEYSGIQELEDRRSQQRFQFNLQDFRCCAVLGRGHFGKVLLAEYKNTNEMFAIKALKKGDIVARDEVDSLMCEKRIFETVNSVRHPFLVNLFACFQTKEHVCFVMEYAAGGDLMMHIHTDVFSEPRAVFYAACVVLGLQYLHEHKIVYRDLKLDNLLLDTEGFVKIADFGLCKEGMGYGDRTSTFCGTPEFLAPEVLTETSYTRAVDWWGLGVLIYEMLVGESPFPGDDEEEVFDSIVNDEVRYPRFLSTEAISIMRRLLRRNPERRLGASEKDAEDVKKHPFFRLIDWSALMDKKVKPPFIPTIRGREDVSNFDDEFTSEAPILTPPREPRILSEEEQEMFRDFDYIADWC

[33] = target: Mitogen-activated protein kinase 8 (Homo sapiens) (UniProt P45983); assay: Inhibition of JNK1 at 1 uM relative to control
Mus musculus = assay: Effect on SCF-induced mast cell activation in po dosed C57BL/6 mouse assessed as decrease in histamine release in blood; assay type: functional, organism-based; details: C57BL/6, Blood
[34] = target: Mitogen-activated protein kinase 12 (Homo sapiens) (UniProt P53778); assay: Inhibition of p38-gamma at 1 uM relative to control
[35] = Half life in Sprague-Dawley rat at 10 mg/kg, po; assay type: ADME, organism-based; design: dose 10 mg/kg, route oral; details: in vivo
[36] = target: Ribosomal protein S6 kinase beta-1 (Homo sapiens) (UniProt P23443); assay: Inhibition of P70S6 at 1 uM relative to control
Ribosomal protein S6 kinase beta-1 (Homo sapiens), sequence (P23443 whole entry, looked up): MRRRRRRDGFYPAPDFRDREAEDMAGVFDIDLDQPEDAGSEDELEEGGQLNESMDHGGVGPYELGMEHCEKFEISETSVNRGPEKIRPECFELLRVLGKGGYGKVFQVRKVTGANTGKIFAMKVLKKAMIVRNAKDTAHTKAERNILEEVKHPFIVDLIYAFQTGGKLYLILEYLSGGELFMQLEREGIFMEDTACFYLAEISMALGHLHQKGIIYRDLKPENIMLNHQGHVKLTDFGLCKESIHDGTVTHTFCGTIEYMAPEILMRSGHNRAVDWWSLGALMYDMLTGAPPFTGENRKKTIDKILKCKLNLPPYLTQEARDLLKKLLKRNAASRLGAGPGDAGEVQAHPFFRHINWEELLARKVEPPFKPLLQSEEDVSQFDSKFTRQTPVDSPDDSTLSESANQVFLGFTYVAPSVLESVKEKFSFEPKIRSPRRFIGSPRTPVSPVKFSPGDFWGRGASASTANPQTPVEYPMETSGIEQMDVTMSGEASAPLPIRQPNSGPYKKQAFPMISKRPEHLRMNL

[37] = target: Dual specificity mitogen-activated protein kinase kinase 7 (Homo sapiens) (UniProt O14733); assay: Inhibition of MKK7 at 1 uM relative to control
[38] = target: Protein kinase C alpha type (Homo sapiens) (UniProt P17252); assay: Inhibition of PKCalpha at 1 uM relative to control
[39] = target: Calcium/calmodulin-dependent protein kinase type IV (Homo sapiens) (UniProt Q16566); assay: Inhibition of CAMK4 at 1 uM relative to control
[40] = target: Serine/threonine-protein kinase Sgk1 (Homo sapiens) (UniProt O00141); assay: Inhibition of SGK1 at 1 uM relative to control
[41] = target: Cyclin-dependent kinase 1 (Homo sapiens) (UniProt P06493); assay: Inhibition of CDK1 at 1 uM relative to control
[42] = Cmax in Sprague-Dawley rat at 10 mg/kg, po; assay type: ADME, organism-based; design: dose 10 mg/kg, route oral; details: in vivo
[43] = target: Dual specificity mitogen-activated protein kinase kinase 6 (Homo sapiens) (UniProt P52564); assay: Inhibition of MKK6 at 1 uM relative to control
[44] = target: Proto-oncogene tyrosine-protein kinase Src (Homo sapiens, UniProt P12931)
Proto-oncogene tyrosine-protein kinase Src, sequence (P12931 2-536 limits assumed): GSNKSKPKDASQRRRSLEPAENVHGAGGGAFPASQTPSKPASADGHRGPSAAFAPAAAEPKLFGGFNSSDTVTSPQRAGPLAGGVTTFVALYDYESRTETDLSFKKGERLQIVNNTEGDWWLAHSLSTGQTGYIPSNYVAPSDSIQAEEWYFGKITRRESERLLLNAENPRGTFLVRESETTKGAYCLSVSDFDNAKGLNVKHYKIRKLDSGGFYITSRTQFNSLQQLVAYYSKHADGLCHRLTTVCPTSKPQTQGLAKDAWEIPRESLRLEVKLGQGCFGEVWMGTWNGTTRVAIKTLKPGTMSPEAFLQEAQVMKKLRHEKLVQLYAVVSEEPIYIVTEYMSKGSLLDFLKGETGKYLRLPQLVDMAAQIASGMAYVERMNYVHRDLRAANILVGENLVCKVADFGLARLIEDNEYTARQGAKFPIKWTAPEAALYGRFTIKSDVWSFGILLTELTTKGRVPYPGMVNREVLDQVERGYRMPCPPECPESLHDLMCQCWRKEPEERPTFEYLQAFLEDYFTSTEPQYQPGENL
Description: Inhibition of Src by TR-FRET assay

[45] = Inhibition of p38 by TR-FRET assay
[46] = target: Serine/threonine-protein kinase Chk1 (Homo sapiens) (UniProt O14757); assay: Inhibition of CHK1 at 1 uM relative to control
[47] = target: MAP kinase-activated protein kinase 2 (Homo sapiens) (UniProt P49137); assay: Inhibition of MAPKAPK2 at 1 uM relative to control
MAP kinase-activated protein kinase 2 (Homo sapiens), sequence (P49137 whole entry, looked up): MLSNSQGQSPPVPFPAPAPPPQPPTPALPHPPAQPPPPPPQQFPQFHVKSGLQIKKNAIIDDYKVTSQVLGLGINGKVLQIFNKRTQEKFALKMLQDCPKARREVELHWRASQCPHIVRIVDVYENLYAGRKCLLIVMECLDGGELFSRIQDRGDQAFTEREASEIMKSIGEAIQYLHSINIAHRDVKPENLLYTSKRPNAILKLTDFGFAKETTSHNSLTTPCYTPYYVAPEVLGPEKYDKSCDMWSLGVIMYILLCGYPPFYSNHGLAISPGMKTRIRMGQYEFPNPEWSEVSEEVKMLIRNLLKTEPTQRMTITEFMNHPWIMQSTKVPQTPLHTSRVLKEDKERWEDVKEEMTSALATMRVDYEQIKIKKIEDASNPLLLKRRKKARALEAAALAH

[48] = Volume of distribution at steady state in Sprague-Dawley rat at 1 mg/kg, iv; assay type: ADME, organism-based; design: dose 1 mg/kg, route intravenous; details: in vivo, read-out: Vdss
[49] = Half life in Sprague-Dawley rat at 2 mg/kg, po; assay type: ADME, organism-based; design: dose 2 mg/kg, route oral; details: in vivo
[50] = Oral bioavailability in Sprague-Dawley rat at 2 mg/kg; assay type: ADME, organism-based; details: in vivo
[51] = AUC (0 to t) in Sprague-Dawley rat at 2 mg/kg, po; assay type: ADME, organism-based; design: dose 2 mg/kg, route oral; details: plasma
[52] = Cmax in Sprague-Dawley rat at 2 mg/kg, po; assay type: ADME, organism-based; design: dose 2 mg/kg, route oral; details: in vivo
[53] = target: Mast/stem cell growth factor receptor Kit (Homo sapiens, UniProt P10721)
Description: Inhibition of SCF-induced phosphorylation of c-Kit in MO7e cells by TR-FRET assay

Cc1ccn(-c2cccc(C(F)(F)F)c2)c(=O)c1-c1ccc2nc(N)ncc2c1
inhibition [1]: > 50% | pIC50 [2]: 5.85 | inhibition [3]: > 50% | inhibition [4]: > 50% | inhibition [5]: > 50% | inhibition [6]: > 50% | inhibition [7]: > 50% | inhibition [8]: > 50% | inhibition [9]: > 50% | clearance [10]: 41 mL/min/kg | AUC(0-t) [11]: 1040 ng·h/mL | inhibition [12]: > 50% | inhibition [13]: > 50% | inhibition [14]: > 50% | inhibition [15]: > 50% | inhibition [16]: > 50% | inhibition [17]: > 50% | inhibition [18]: > 50% | bioavailability [19]: 25% | inhibition [20]: 50% | inhibition [21]: > 50% | Activity (Plasma): 87.85% | pIC50 [22]: < 5.30 | inhibition [23]: > 50% | inhibition [24]: > 50% | pIC50 [25]: 8.05 | inhibition [26]: > 50% | pIC50 [27]: 5.77 | inhibition [28]: > 50% | inhibition [29]: > 50% | inhibition [30]: > 50% | inhibition [31]: 50% | inhibition [32]: > 50% | inhibition [33]: > 50% | pEC50 (Mus musculus): 7.90 | ED50 (Mus musculus; po): 4.7 mg/kg | inhibition [34]: > 50% | half-life [35]: 1.83 h | inhibition [36]: > 50% | inhibition [37]: > 50% | inhibition [38]: > 50% | inhibition [39]: > 50% | inhibition [40]: > 50% | inhibition [41]: > 50% | Cmax [42]: 253 ng/mL | inhibition [43]: > 50% | pIC50 [44]: 6.07 | pIC50 [45]: 5.21 | inhibition [46]: > 50% | inhibition [47]: > 50% | Vd [48]: 4.12 L/kg

Cc1ccc(-n2ccc(C)c(-c3ccc4nc(N)ncc4c3)c2=O)cc1F
clearance [10]: 32.5 mL/min/kg | half-life [49]: 2.9 h | bioavailability [50]: 100% | pIC50 [22]: < 5.30 | pIC50 [27]: 4.60 | AUC(0-t) [51]: 1310 ng·h/mL | Cmax [52]: 280 ng/mL | pIC50 [53]: 7.92 | pIC50 [44]: 4.60 | pIC50 [45]: 4.40 | Vd [48]: 2.39 L/kg
